{"source": "patent US20050222235A1", "about": "“Drugs for improving the prognosis of brain injury and a method of screening the same” (priority 2002, published 2005)", "format_in_all_cases": "in vivo, mouse", "key": {"[1]": {"system": "Twitcher mice", "experiment": "Twitcher mice (hereditary demyelinating disease): astroglia activation and DP receptor expression", "conditions": "subcutaneous 30 mg/kg/day for 14 days", "text": "Changes in mRNA of H-PGDS and DP receptor as a result of demyelination were quantified by a quantitative RT-PCR method using a model mouse Twitcher of human Krabbe diseases which is a disease where galactosylceramidase is deficient (Kobayashi T, et al., Brain Res., 202:479-483, 1980; Duchen L W, et al., Brain, 103:695-710, 1980; Sakai N, et al., J. Neurochem., 66:1118-1124, 1996; Taniike M et al., J. Neuropathol. Exp. Neurol., 58:644-653, 1999) (refer to FIG. 1). Expression of mRNA of both H-PGDS and DP receptor increased as a result of demyelination.\nHQL-79 (4-benzhydryloxy-1-{3-(1H-tetrazol-5-yl)-propyl}piperidine) which is an H-PGDS inhibitor was subcutaneously administered to Twitcher mice at the dose of 30 mg/kg/day for 14 days whereupon activation of astroglia cells was suppressed and, at the same time, expression of DP receptor in astroglia cells lowered (refer to FIG. 13)."}, "[2]": {"system": "Stab wound model mice", "experiment": "Stab wound model of traumatic brain injury: recovery / progress of brain injury (histology)"}, "[3]": {"system": "DP receptor", "experiment": "Stab wound model: DP receptor mRNA in tissue injury region", "conditions": "oral 30 mg/kg/day for 4 days from one hour before injuring"}, "[4]": {"system": "Stab wound model mice", "experiment": "Stab wound model: Evans Blue dye leakage to the injured site", "conditions": "for leakage of the dye to the injured site: Stab wound model mice, Evans Blue after 2 days", "procedure": "Degree of injury was quantified by a dye leakage (Evans Blue) to the injured site (Kakimura Y, et al., Nature Medicine, 4:1078-1080, 1998). After 2 days from injury, the maximum value was noted and, after that, it lowered as a result of recovery (refer to FIG. 20).\nAn effect of BW A868C or ramatroban ((±)-(3R)-3-(4-fluorobenzenesulfonamide)-1,2,3,4-tetrahydrocarbazol-9-propionic acid) which is an antagonist for prostaglandin D receptor to Stab wound model mice was evaluated using leakage amount of dye to the injured site as an index. Thus, Evans Blue dye was intravenously administered after 2 days from occurrence of brain injury and the amount of leakage of the dye to the tissue during 2 hours thereafter was measured. When BW A868C (1 mg/kg) was intravenously administered after 3 hours and after one day from occurrence of the brain injury, leakage of the dye to the injured site was suppressed (refer to FIG. 27).\nAn effect of pinagladin which is a DP receptor antagonist to a Stab wound model was evaluated by a leakage amount of dye to the injured site. Thus, Evans Blue was intravenously injected on the second day after occurrence of brain injury and leakage amount of the dye into the tissue during 2 hours thereafter was measured. As a result, when pinagladin (10 mg/kg) was orally administered before 1 hour and after one day of the occurrence of the injury, an increase in leakage amount of Evans Blue dye noted as a result of brain injury was suppressed (refer to FIG. 24)."}, "[5]": {"conditions": "traumatic brain injury, administration started after 24 hours from injury"}}}
{"smiles": "c1ccc(C(OC2CCN(CCCc3nnn[nH]3)CC2)c2ccccc2)cc1", "note": "[HQL-79, 4-benzhydryloxy-1-{3-(1H-tetrazol-5-yl)-propyl}piperidine]", "values": [{"measurement": "activation of astroglia cells", "setting": "[1]", "result": "suppressed"}, {"measurement": "expression of DP receptor in astroglia cells", "setting": "[1]", "result": "lowered"}, {"measurement": "recovery of brain injury", "setting": "[2]; Stab wound model, oral 30 mg/kg/day for 4 days from one hour before injuring", "result": "promotion of recovery"}, {"measurement": "tissue injury (expansion of injury)", "setting": "[2]; [5]", "result": "inhibitory effect"}, {"measurement": "amount of mRNA of DP receptor in tissue injury region", "setting": "[3]", "result": "lowered"}, {"measurement": "leakage reaction of dye to the injured site", "setting": "[4]; Stab wound model, oral 30 mg/kg/day, administration started one hour before injury", "result": "therapeutic effect was also confirmed"}, {"measurement": "tissue injury (leakage of dye)", "setting": "[4]; [5]", "result": "inhibitory effect"}]}
{"smiles": "CC1(C)[C@H]2C[C@H](C/C=C\\CCCC(=O)O)[C@@H](NC(=O)c3csc4ccccc34)[C@@H]1C2", "note": "[pinagladin, (Z)-7-[(1R,2R,3S,5S)-2-(benzo[b]-thiophene-3-ylcarbonylamino)-10-norpinan-3-yl]hepta-5-enoic acid]", "values": [{"measurement": "progress of brain injury (histopathological investigation)", "setting": "[2]; Stab wound model, in any of administration routes", "result": "suppressed the progress of brain injury"}, {"measurement": "increase in leakage amount of Evans Blue dye as a result of brain injury", "setting": "[4]; Stab wound model, 10 mg/kg oral before 1 hour and after one day of injury, Evans Blue on second day, leakage during 2 hours", "result": "suppressed"}]}
{"smiles": "O=C(O)CCCCCCC1C(=O)N(Cc2ccccc2)C(=O)N1NCC(O)C1CCCCC1", "note": "(racemic) [BW A868C, (±)-3-benzyl-5-(6-carboxyhexyl)-1-(2-cyclohexyl-2-hydroxyethylamino)-hydantoin]", "values": [{"measurement": "recovery of brain injury", "setting": "[2]; Stab wound model mice, intravenous 1 mg/kg/day for 4 days from the initial day of injury", "result": "promotion of recovery"}, {"measurement": "leakage of the dye to the injured site", "setting": "[4]; 1 mg/kg intravenous after 3 hours and after one day from injury, leakage during 2 hours", "result": "suppressed"}]}
{"smiles": "O=C(O)CCn1c2c(c3ccccc31)C[C@H](NS(=O)(=O)c1ccc(F)cc1)CC2", "note": "[ramatroban, (+)-(3R)-3-(4-fluorobenzenesulfonamide)-1,2,3,4-tetrahydrocarbazol-9-propionic acid]", "values": [{"measurement": "leakage of the dye to the injured site", "setting": "[4]; 30 mg/kg oral after 3 hours and after one day from injury, leakage during 2 hours", "result": "suppressed"}]}
